Assay results as given in patent US12611434B2, “Bifidobacterium brevis and its application in preventing or alleviating psoriasis thereof” (Jiangnan University, priority 2020, dated 2026).

Key:
Format in all cases: in vivo, BALB/c female mice
IL-23 = IL-23 content in skin of psoriasis mice by ELISA kit; settings: compared with model group; intragastric daily (bacteria 0.2 mL of 1×10^9 CFU/mL; methotrexate 1 mg/kg/day); back skin, 1st day of week 4
Text: (§1) 6 to 8-week-old SPF-class BALB/c female mice were divided into 4 groups: a normal group, a model group, a positive reference group (hereinafter referred to as PRG) and experimental groups, where the experimental groups included a CCFM1078 group intragastrically administrated with the B. breve CCFM1078 and a B. breve 1 group intragastrically administrated with the B. breve 1, with 6 animals in each group. All mice were raised in the Experimental Animal Center of Jiangnan University and fed with ordinary feed, at a constant temperature of 21 to 26° C. and at the humidity of 40 to 70%, with noise of less than or equal to 60 dB, and animal illumination of 15 to 20 LX (all animal experiment procedures were reviewed and approved by the Animal welfare and Ethics Management Committee of Jiangnan University).
(§2) The experimental cycle was a total of 3 weeks, and modeling was performed in week 3. The back of the mice was depilated the day before modeling, in an area of about 2.5 cm×2.5 cm. […] The mice were sacrificed on the 1st day of week 4, a part of the skin of the back depilated region of mice was taken and stored at −80° C., and the content of IL-23 in the skin was detected by an ELISA kit.

IL-22 = IL-22 content in skin of psoriasis mice by ELISA kit; settings: compared with model group; intragastric daily (bacteria 0.2 mL of 1×10^9 CFU/mL; methotrexate 1 mg/kg/day); back skin, 1st day of week 4
Text: as §1
as §2, with “IL-22” for “IL-23”

IL-17 = IL-17 content in skin of psoriasis mice by ELISA kit; settings: compared with model group; intragastric daily (bacteria 0.2 mL of 1×10^9 CFU/mL); back skin, 1st day of week 4
Text: as §1
as §2, with “IL-17” for “IL-23”

CN(Cc1cnc2nc(N)nc(N)c2n1)c1ccc(C(=O)N[C@@H](CCC(=O)O)C(=O)O)cc1 [methotrexate]
decrease of IL-23 content in the skin (IL-23): 43.8%
decrease of IL-22 content in the skin (IL-22): 41.8%
decrease of IL-17 content in the skin (IL-17): 24.6%
